Five compounds from patent US8604195B2, “Substituted bicyclic piperidinyl- and piperazinyl-sulfonamides useful to inhibit 11β-hydroxysteroid dehydrogenase type-1” (Merck Sharp & Dohme Corp., priority 2007, dated 2013) can be followed below.

One assay has as its target Human 11-β-HSD1 (Homo sapiens, UniProt P28845). The assay can be described thus: 11β-HSD1 enzymatic activity, 3H-cortisone SPA, human enzyme. Conditions: Human 11-β-HSD1 IC50 (nM), membrane, 125 nM 3H-cortisone, 1 hr room temperature.
The next assay concerns the target Mouse 11-β-HSD1 (Mus musculus, UniProt P50172). Description: 11β-HSD1 enzymatic activity, 3H-cortisone SPA, mouse enzyme. Conditions: Mouse 11-β-HSD1 IC50 (nM), membrane, 125 nM 3H-cortisone, 1 hr room temperature.

Human 11-β-HSD1, sequence (P28845 whole entry): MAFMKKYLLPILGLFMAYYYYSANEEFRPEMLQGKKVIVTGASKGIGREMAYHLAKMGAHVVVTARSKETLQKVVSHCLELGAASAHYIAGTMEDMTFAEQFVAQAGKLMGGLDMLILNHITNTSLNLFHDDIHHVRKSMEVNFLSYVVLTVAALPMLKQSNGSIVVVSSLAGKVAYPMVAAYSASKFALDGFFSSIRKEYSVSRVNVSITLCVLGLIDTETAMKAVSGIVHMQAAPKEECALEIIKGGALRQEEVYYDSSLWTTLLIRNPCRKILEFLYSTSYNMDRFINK
Mouse 11-β-HSD1, sequence (P50172 whole entry): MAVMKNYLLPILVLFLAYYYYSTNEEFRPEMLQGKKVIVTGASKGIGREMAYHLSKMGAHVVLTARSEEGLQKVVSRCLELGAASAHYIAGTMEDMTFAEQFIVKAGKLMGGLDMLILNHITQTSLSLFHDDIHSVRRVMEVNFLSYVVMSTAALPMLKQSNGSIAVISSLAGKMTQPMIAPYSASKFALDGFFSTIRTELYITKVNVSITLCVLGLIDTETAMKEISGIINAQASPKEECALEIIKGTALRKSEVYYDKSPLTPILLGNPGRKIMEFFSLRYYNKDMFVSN
Procedure for Human 11-β-HSD1: (§1) The reaction was incubated at room temperature for 1 hr before it was stopped by addition of 50 μM buffer containing 20 mM NaPO4 pH 7.5, 30 μM 18β-glycyrrhetinic acid, 1 μg/ml monoclonal anti-cortisol antibody (Biosource) and 2 mg/ml anti-mouse antibody coated scintillation proximity assay (SPA) beads (Amersham Bioscience). The mixture was incubated at room temperature for 2 hrs with vigorous shaking and analyzed on TopCount scintillation counter.
Procedure for Mouse 11-β-HSD1: as §1

As a reminder, the IC50 is the concentration needed to halve the response being measured. Regarding `CC(C)(C)c1ccc(S(=O)(=O)N2C3CCC2CC(Oc2ccc(C#N)cn2)C3)cc1` (single isomer, unassigned) [Compound 6], the results for the concentration for half-maximal inhibition (IC50) against Human 11-β-HSD1 and on Mouse 11-β-HSD1 were 413 nM and 5590 nM, respectively.

As to `CC(C)(C)c1ccc(S(=O)(=O)N2C3CCC2CC(O)(c2ccccc2)C3)cc1` (stereo not drawn) [Compound 16], on Mouse 11-β-HSD1, the 50% inhibitory concentration (IC50) was 138 nM.

As to `CC(C)(C)c1ccc(S(=O)(=O)N2C3CCC2CC(O)(Cc2ccccc2)C3)cc1` (stereo not drawn) [Compound 15], the 50% inhibitory concentration (IC50) was determined as 740 nM at Human 11-β-HSD1 and 114 nM at Mouse 11-β-HSD1.

With `CCC(C)(C)c1ccc(S(=O)(=O)N2C[C@@H]3C[C@H]2CN3C)cc1` [Compound 21], the IC50 at Human 11-β-HSD1 was found to be 333 nM; against Mouse 11-β-HSD1, 258 nM.

Regarding `CC(C)(C)c1ccc(S(=O)(=O)N2C3CCC2CC(Oc2ccc(C#N)cn2)C3)cc1` (single isomer, unassigned) [Compound 5], the half-maximal inhibitory concentration (IC50) against Human 11-β-HSD1 is greater than 10000 nM; on Mouse 11-β-HSD1 it was 23800 nM.
